What is called Ki is a measure of affinity in units of concentration, obtained from inhibition or displacement.

The target of assay [1] is T1, human leukocyte cathepsin G (hCG) (Homo sapiens, UniProt P08311).
T1 construct: Neutrophils (1.4 billion) were isolated from whole blood obtained from a single healthy laboratory donor; from tissue; host or cells: neutrophils from whole blood of a single healthy donor
T1 sequence (P08311 21-244 limits assumed): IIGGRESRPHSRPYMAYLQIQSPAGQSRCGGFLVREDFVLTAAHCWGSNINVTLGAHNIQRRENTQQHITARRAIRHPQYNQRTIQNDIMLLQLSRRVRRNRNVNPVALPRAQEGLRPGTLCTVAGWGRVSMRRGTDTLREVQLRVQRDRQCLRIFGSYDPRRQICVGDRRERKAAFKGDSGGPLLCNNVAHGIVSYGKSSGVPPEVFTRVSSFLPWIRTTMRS
The assay can be described thus: In-vitro inhibition of hCG (conversion of Suc-AAPF-NA). Type of assay: biochemical. The protocol:
(§1) The enzymatic activity was assayed with MeOSuc-AAPV-NA for hLE determination and Suc-AAPF-NA for hCG determination (both in 100 mM Hepes buffer, pH 7.4, containing 0.05% of the […] detergent Brij-35). The activities of the individual enzymatic fractions were 100% free from cross-contamination. […] The fractions containing hLE and hCG were dialyzed each against 0.1% pyridinium acetate, pH 5.3, divided into 20 aliquots, lyophilized, and stored at −20° C. until use.
Similar conditions to hLE inhibition experiments ere used except the substrate: 80 μL of 1.8 mM Suc-AAPF-NA. The enzyme was issolved in 800 μL buffer, and the reaction was monitored every 6 min for 1 hour. The final volume was 240 μL containing: 5% DMSO, 1-500 μM peptide, 600 μM substrate, and 1.2 μg enzyme (about 40 picomol).
For hCG, V is determined by fitting a quadratic equation to the total kinetic data (60 min), using the least squares method and calculating V at t=0.
The inhibitory capability of several CRP-derived peptides was evaluated by inhibiting the enzymatic conversion of Suc-AAPF-NA (as described in Materials and Methods (vi) above).

Assay [2] has as its target T2, human leukocyte elastase (hLE) (Homo sapiens, UniProt P08246).
T2 construct: Neutrophils (1.4 billion) were isolated from whole blood obtained from a single healthy laboratory donor; from tissue; host or cells: neutrophils from whole blood of a single healthy donor
T2 sequence (P08246 30-247 limits assumed): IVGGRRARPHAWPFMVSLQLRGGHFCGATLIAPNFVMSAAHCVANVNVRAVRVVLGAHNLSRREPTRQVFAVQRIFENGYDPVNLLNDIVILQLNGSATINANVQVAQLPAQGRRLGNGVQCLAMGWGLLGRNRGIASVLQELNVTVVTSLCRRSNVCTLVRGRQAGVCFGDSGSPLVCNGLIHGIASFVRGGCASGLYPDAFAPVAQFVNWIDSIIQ
In words: In-vitro inhibition of hLE (cleavage of MeOSuc-AAPV-NA). Type of assay: biochemical. The protocol:
as §1
Peptides were dissolved in 100 mM Hepes buffer pH 7.4 containing 0.1% Brij-35 with 10% DMSO to yield 600 μM solutions, which were used to make further dilutions with the same buffer, and 80 μL aliquots were added in duplicates to 96-well plates. The substrate, 600 or 900 μM MeOSuc-AAPV-NA in the same buffer with 5% DMSO, was added to each well in addition to the blank wells, and the plate was placed in the plate reader equilibrated to 37° C. (Dynateck MR-6000). Lyophilized aliquots of hLE were dissolved in 1600 μL of 100 mM Hepes buffer without DMSO, and 80 μL of the enzyme solution was added to the peptides and substrate to initiate the reaction. […] The final volume was 240 μL containing: 5% DMSO, 1-200 μM of peptide, 200 μM substrate, and 0.75 μg (about 25 picomol) enzyme.
For hLE, V is determined by fitting a linear equation to the first 6 time-points (10 min) of the kinetics data using the least squares method. […] From calculating the error in the slope of the equation, the relative error for Ki was deduced:
Ki={slope*(1+[S]/Km)}^−1 because Ki=[I]*{(1+[S]/Km)*(Vo/Vi−1)}^−1.
The hLE inhibitory capability of CRP-derived peptides was evaluated by inhibiting the enzymatic cleavage of MeOSuc-AAPV-NA as described in Materials and Methods (section v).

[3] abbreviates: substrate Suc-AAPF-NA, 600 μM, read-out: hCG Ki.
Where [4] appears, read: substrate MeOSuc-AAPV-NA, 100 mM Hepes pH 7.4, 37° C., read-out: hLE Ki.

Like-named read-outs stand apart in the source and are kept apart here. Starred links: 1 amine or outer side, 2 acyl side, 3 side chain; linkers in the order of their positions; H or OH if unused. Residues, ends and D or L forms follow the SMILES beside them. No end group written: not given here. *: point of attachment. Fmoc = O=C(OCC1c2ccccc2-c2ccccc21)*; NH(1-naphthyl) = c1ccc2c(N*)cccc2c1; MeOSuc = COC(=O)CCC(=O)*; Cbz = O=C(OCc1ccccc1)*; CO = O=C([*:1])[*:2]

On to `CC[C@H](C)[C@H](NC(=O)[C@H](Cc1c[nH]cn1)NC(=O)[C@@H](NC(=O)[C@@H]1CCCN1C(=O)[C@H](C)NC(=O)[C@@H](NC(=O)[C@@H](NC(=O)[C@@H](NC(=O)[C@H](Cc1ccccc1)NC(=O)CCC(=O)OC)C(C)C)[C@@H](C)O)C(C)C)C(C)C)C(=O)O` [Peptide 16, MeOSuc-Phe-Val89-Thr-Val-Ala-Pro-Val-His-Ile96] (MeOSuc-FVTVAPVHI-OH), for which the Ki in assay [1] was found to be 100 ± 200 µM; in assay [2], 100 ± 10 µM.
As for `CC[C@H](C)[C@H](NC(=O)[C@H](Cc1c[nH]cn1)NC(=O)[C@@H](NC(=O)[C@@H]1CCCN1C(=O)[C@H](C)NC(=O)[C@@H](NC(=O)[C@@H](NC(=O)[C@@H](NC(=O)Nc1cccc2ccccc12)C(C)C)[C@@H](C)O)C(C)C)C(C)C)C(=O)O` [Peptide 18, Naphtyl-NH-CO-Val89-Thr-Val-Ala-Pro-Val-His-Ile96] ({NH(1-naphthyl)-CO}-VTVAPVHI-OH), the Ki in assay [1] amounted to 300 ± 40 µM; in assay [2] it was 240 ± 35 µM.
As to `CC[C@H](C)[C@H](NC(=O)[C@H](Cc1c[nH]cn1)NC(=O)[C@@H](NC(=O)[C@@H]1CCCN1C(=O)[C@H](C)NC(=O)[C@@H](NC(=O)[C@@H](NC(=O)[C@@H](NC(=O)[C@H](Cc1ccccc1)NC(=O)OCc1ccccc1)C(C)C)[C@@H](C)O)C(C)C)C(C)C)C(=O)O` [Peptide 21, CBz-Phe-Val89-Thr-Val-Ala-Pro-Val-His-Ile96] (Cbz-FVTVAPVHI-OH), the Ki in assay [1] amounted to 430 ± 60 µM; in assay [2], 380 ± 115 µM.
`CC[C@H](C)[C@H](NC(=O)[C@H](Cc1c[nH]cn1)NC(=O)[C@@H](NC(=O)[C@@H]1CCCN1C(=O)[C@H](C)NC(=O)[C@@H](NC(=O)[C@@H](NC(=O)[C@@H](NC(=O)OCC1c2ccccc2-c2ccccc21)C(C)C)[C@@H](C)O)C(C)C)C(C)C)C(=O)O` [Peptide 23, Fmoc-Val89-Thr-Val-Ala-Pro-Val-His-Ile96] (Fmoc-VTVAPVHI-OH): the Ki came out at 280 ± 30 µM in assay [1] and 1000 ± 100 µM in assay [2].
On the same counts, the results for “DIGYSFTVGGSEILFEVPEVTVAPVHICT [Peptide 3c]” are 22 ± 3 µM and 4 µM.
On the same counts, the results for “GSEILFEVPEVTVAPVHI [Peptide 2, Gly79-Ser-Glu-Ile-Leu-Phe-Glu-Val-Pro-Glu-Val-Thr-Val-Ala-Pro-Val-His-Ile96]” are 1200 ± 200 µM and 50 ± 5 µM.
For SFTVGGSEILFEVPEVTVAPVHI [Peptide 3], the Ki in assay [1] came to 500 ± 100 µM; in assay [2] it was 27 ± 3 µM.
As to SFTVGGSEILFEVPEVTVAPVHICT [Peptide 3a], the Ki in assay [1] turned out to be 180 ± 30 µM; in assay [2], 20 ± 3 µM.
With “SFTVGGSEILFEVPEVTVAPVHICTSWESA [Peptide 3b]”, the results for the inhibition constant Ki in assay [1] and in assay [2] were 200 ± 30 µM and 22 ± 4 µM, respectively.
As for “VTVAPFHIP-NH2 [Peptide 13, Val89-Thr-Val-Ala-Pro-Phe-His-Ile96-Pro-NH2]”, the Ki stood at 900 ± 200 µM in assay [1] (setting [3]) and 180 ± 30 µM in assay [2] (setting [4]).
With “VTVAPVFI [Peptide 10, Val89-Thr-Val-Ala-Pro-Val-Phe-Ile96]”, the results for the inhibitory constant (Ki) in assay [1] (setting [3]) and in assay [2] (setting [4]) were 1 ± 0.2 µM and 110 ± 25 µM, respectively.

Source of the values: US20020119917A1, “ANTI-INFLAMMATORY PEPTIDES DERIVED FROM C-REACTIVE PROTEIN” (priority 1996, published 2002).
